According to patent publication US20240409536A1, “COMPOUNDS AND METHODS FOR MODULATING SPLICING” (REMIX THERAPEUTICS INC., priority 2021, published 2024):

Experiments:
SMN2 mRNA = experiment: Gene panel canonical junction qPCR assay, SMN2 CJ mRNA decrease; assay type: cell-based, human; settings: Homo sapiens, canonical junction qPCR, read-out: SMN2 IC50 (decrease in CJ mRNA levels)
Procedure, shortened: (§1)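 IC50 values describe loss of canonical-junction transcript, fitted by 4-parameter logistic to percent response derived from fixed ΔCt windows. Read-out: RT-qPCR on lysates of compound-treated K562 or A673 cells, probes overlapping the exon junction, ΔΔCt versus housekeeping gene and DMSO control.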

Target C mRNA = experiment: Gene panel canonical junction qPCR assay, Target C CJ mRNA decrease; assay type: cell-based; settings: Homo sapiens, canonical junction qPCR, read-out: Target C IC50 (decrease in CJ mRNA levels)
Procedure, shortened: as §1

Target C = experiment: HiBiT protein abundance assay, Target C (K562 HiBiT knock-in cells); assay type: cell-based, human; settings: 24 hours
Procedure, shortened: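 K562 knock-in cells (10000/well, IMDM+1% FBS) treated 24 h at 37 °C with 10-point 3-fold dilutions, top final 10 μM, DMSO ≤0.25%. HiBiT lytic luminescence read; response normalized to unmodified K562 and DMSO-treated controls. IC50 interpolated at 50% abundance by four-parameter logistic fit.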

HTT mRNA = experiment: Gene panel canonical junction qPCR assay, HTT CJ mRNA decrease; assay type: cell-based, human; settings: Homo sapiens, canonical junction qPCR, read-out: HTT IC50 (decrease in CJ mRNA levels)
Procedure, shortened: as §1

HiBiT-tagged HTT protein = experiment: HiBiT protein abundance assay, HTT (K562 HiBiT knock-in cells); assay type: cell-based, human; settings: 24 hours
Procedure, shortened: (§2)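 K562 cells with endogenous HiBiT knock-in tag, 10-point 3-fold dilutions (top 10 μM final, ≤0.25% DMSO), 24 h at 37 °C. Lytic Nano-Glo HiBiT luminescence, normalized to DMSO and unmodified K562 baselines; IC50 is concentration giving 50% protein abundance from four-parameter fit.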

MYB mRNA = experiment: Gene panel canonical junction qPCR assay, MYB CJ mRNA decrease; assay type: cell-based, human; settings: Homo sapiens, canonical junction qPCR, read-out: MYB IC50 (decrease in CJ mRNA levels)
Procedure, shortened: as §1

HiBiT-tagged MYB protein = experiment: HiBiT protein abundance assay, MYB (K562 HiBiT knock-in cells); assay type: cell-based, human; settings: 24 hours
Procedure, shortened: as §2

K562 cells = experiment: Cell Titer Glo 2.0 cell viability assay in K562 cells; settings: 72 hours

Row | Compound | IC50 (SMN2 mRNA) [nM] | IC50 (Target C mRNA) [µM] | IC50 (Target C) [µM] | IC50 (HTT mRNA) [µM] | IC50 (HiBiT-tagged HTT protein) [µM] | IC50 (MYB mRNA) [nM] | IC50 (HiBiT-tagged MYB protein) [nM] | Viability (K562 cells)
1 | Cc1cn2cc(NC(=O)c3ccc(N4CCNC5(CC5)C4)c4cccnc34)cc(F)c2n1 [Compound 341] | < 100 | 1 to 10 | > 10 | 1 to 10 | 1 to 10 | 100 to 1000 | 100 to 1000 | B (B represents 100-1000 nM)
2 | COc1nc2c(F)cc(NC(=O)c3ccc(N4C[C@@H](C)N[C@@H](C)C4)c4nccnc34)cc2o1 [Compound 342] | 100 to 1000 | > 10 | > 10 | > 10 | > 10 | > 10000 | > 10000 | C (C represents 1000-9999 nM)
3 | C[C@@H]1CN(c2ccc(C(=O)Nc3cc(F)c4cnccc4c3)c3nccnc23)C[C@H](C)N1 [Compound 343] | 100 to 1000 | 1 to 10 | 1 to 10 | 1 to 10 | 1 to 10 | 1000 to 10000 | 1000 to 10000 | C (C represents 1000-9999 nM)
4 | C[C@@H]1CN(c2ccc(C(=O)Nc3cc(F)c4ncccc4c3)c3nccnc23)C[C@H](C)N1 [Compound 344] | 100 to 1000 | > 10 | > 10 | > 10 | > 10 | 1000 to 10000 | 1000 to 10000 | C (C represents 1000-9999 nM)
5 | Cc1cn2cc(NC(=O)c3ccc(N4CCNCC4)c4nncnc34)cc(F)c2n1 [Compound 345] | < 100 | 1 to 10 | 1 to 10 | 1 to 10 | 1 to 10 | 100 to 1000 | 100 to 1000 | B (B represents 100-1000 nM)
6 | Cc1cn2cc(NC(=O)c3ccc(N4C[C@@H](C)N[C@@H](C)C4)c4ncc(OC5CC5)nc34)cc(F)c2n1 [Compound 351] | < 100 | 1 to 10 | > 10 | 1 to 10 | 1 to 10 | 100 to 1000 | 100 to 1000 | B (B represents 100-1000 nM)
7 | COc1nc(NC(=O)c2ccc(N3C[C@@H](C)N[C@@H](C)C3)c3nccnc23)cc2cn(C)nc12 [Compound 352] | < 100 | 1 to 10 | 1 to 10 | 1 to 10 | 1 to 10 | 100 to 1000 | 100 to 1000 | B (B represents 100-1000 nM)
8 | Cc1ccc2cc(NC(=O)c3ccc(N4C[C@@H](C)N[C@@H](C)C4)c4nccnc34)cc(F)c2n1 [Compound 353] | 100 to 1000 | > 10 | > 10 | > 10 | > 10 | > 10000 | > 10000 | C (C represents 1000-9999 nM)
9 | Cc1cn2nc(NC(=O)c3ccc(N4C[C@@H](C)N[C@@H](C)C4)c4nccnc34)cc2c(C)n1 [Compound 354] | 100 to 1000 | 0.1 to 1 | 0.1 to 1 | 0.1 to 1 | 0.1 to 1 | 100 to 1000 | 100 to 1000 | B (B represents 100-1000 nM)
10 | Cc1cn2cc(NC(=O)c3ccc(N4CCC(N)(CF)CC4)c4nccnc34)cc(F)c2n1 [Compound 356] | 100 to 1000 | > 10 | 1 to 10 | 1 to 10 | 1 to 10 | 1000 to 10000 | 1000 to 10000 | C (C represents 1000-9999 nM)
11 | COc1cn2cc(NC(=O)c3ccc(N4C[C@@H](C)N[C@@H](C)C4)c4nccnc34)cc(F)c2n1 [Compound 357] | 100 to 1000 | > 10 | > 10 | > 10 | > 10 | > 10000 | 1000 to 10000 | C (C represents 1000-9999 nM)
12 | Cc1cn2cc(NC(=O)c3ccc(N4C[C@@H](C)N[C@@H](C)C4)c4ncccc34)cc(F)c2n1 [Compound 358] | > 10000 | > 10 | > 10 | > 10 | > 10 | > 10000 | > 10000 | D (D represents greater than 10 μM in K562 cells)
13 | Cc1cn2cc(NC(=O)c3ccc(N4C[C@@H](C)N[C@@H](C)C4)c4nccnc34)nc2c(C)n1 [Compound 359] | < 100 | > 10 | > 10 | > 10 | > 10 | 100 to 1000 | 100 to 1000 | B (B represents 100-1000 nM)
14 | C[C@@H]1CN(c2ccc(C(=O)Nc3cc(F)c4nc(O)cn4c3)c3nccnc23)C[C@H](C)N1 [Compound 360] | 1000 to 10000 | > 10 | > 10 | > 10 | > 10 | > 10000 | > 10000 | D (D represents greater than 10 μM in K562 cells)
15 | Cc1cn2cc(NC(=O)c3ccc(N4CCN[C@H](CO)C4)c4nccnc34)cc(F)c2n1 [Compound 362] | < 100 | 1 to 10 | 1 to 10 | 1 to 10 | 1 to 10 | 100 to 1000 | 100 to 1000 | B (B represents 100-1000 nM)
16 | Cc1cn2cc(NC(=O)c3ccc(N4CCNC5(CCC5)C4)c4nccnc34)cc(F)c2n1 [Compound 363] | < 100 | 1 to 10 | 1 to 10 | 1 to 10 | 1 to 10 | 100 to 1000 | < 100 | A (A represents <100 nM)
17 | Cc1cn2cc(NC(=O)c3ccc(N4CCN(C)C5(CC5)C4)c4nccnc34)cc(F)c2n1 [Compound 364] | < 100 | 1 to 10 | 1 to 10 | 0.1 to 1 | 0.1 to 1 | 100 to 1000 | 100 to 1000 | B (B represents 100-1000 nM)
18 | CCN1CCN(c2ccc(C(=O)Nc3cc(F)c4nc(C)cn4c3)c3nccnc23)CC12CC2 [Compound 365] | < 100 | 1 to 10 | 1 to 10 | 0.1 to 1 | 0.1 to 1 | 100 to 1000 | 100 to 1000 | B (B represents 100-1000 nM)
19 | Cc1cn2cc(NC(=O)c3ccc(N4CCN[C@H](CF)C4)c4nccnc34)cc(F)c2n1 [Compound 366] | < 100 | 1 to 10 | 1 to 10 | 1 to 10 | 1 to 10 | 100 to 1000 | 100 to 1000 | C (C represents 1000-9999 nM)
